Here are results for 26 molecules from paper PMC7918878 (Molecules, 2021).

The target of test [1] is BuChE obtained from equine serum (EqBuChE) (Equus caballus, UniProt P81908). In words: biochemical. The format is biochemical. Particulars: for fold less active against BuChE than 2d: compared with 2-chlorobenzylidene analogue 2d; for IC50: mean ± SD, n = three independent experiments, BTCh 40 µM.
Test [2] concerns the target AChE isolated from electric eel (EeAChE) (Electrophorus electricus, UniProt O42275). In words: biochemical. Particulars: for Selectivity BuChE/AChE: SI = ratio of IC50 for BuChE/IC50 for AChE, >1 means stronger inhibition of AChE; for IC50: mean ± SD, n = three independent experiments, ATCh 40 µM.
Test [3] deals with HepG2 cells. Particulars: cited from earlier work.
Test [4] concerns the target eeAChE (Electrophorus electricus, UniProt O42275). In words: Type of inhibition, Lineweaver–Burk plot and nonlinear regression. The test is classed as biochemical. As to the method:
The type of inhibition could be distinguished using a Lineweaver–Burk plot and corresponding comparison of two kinetic parameters: Michaelis constant (KM) and maximum velocity (Vm) of uninhibited and inhibited reaction. […].
. The dependence absorbance vs. time was observed and the reaction rate was calculated. All measurements were carried out in duplicate and the average values of reaction rate were used for the construction of the Lineweaver–Burk plot. Furthermore, the dependencies vs. concentration of ATCh in absence and presence of inhibitor 2l were analyzed by nonlinear regression using GraphPad Prism 9.0.1 for Windows (GraphPad Software, San Diego, CA, USA, www.graphpad.com). From obtained equations of regression curves in the Lineweaver–Burk plot, the values of Michaelis constant (KM) and maximum velocity (Vm) were calculated. […]. Based on all obtained results, the type of inhibition was identified.

Setting [5] is: nonlinear regression, mixed model inhibition.

Where “and” joins values, the source holds several entries; their conditions need not be identical. Equal entries are not always repeated. Where two headings read alike, the source gives them in different places.

One may read the IC50 as the concentration needed to halve the response being measured. Broadly, the Ki is the dissociation constant of the complex between target and ligand, obtained from inhibition or displacement. A high value points to a looser hold on the target.

AChE isolated from electric eel (EeAChE), sequence (O42275 24-633): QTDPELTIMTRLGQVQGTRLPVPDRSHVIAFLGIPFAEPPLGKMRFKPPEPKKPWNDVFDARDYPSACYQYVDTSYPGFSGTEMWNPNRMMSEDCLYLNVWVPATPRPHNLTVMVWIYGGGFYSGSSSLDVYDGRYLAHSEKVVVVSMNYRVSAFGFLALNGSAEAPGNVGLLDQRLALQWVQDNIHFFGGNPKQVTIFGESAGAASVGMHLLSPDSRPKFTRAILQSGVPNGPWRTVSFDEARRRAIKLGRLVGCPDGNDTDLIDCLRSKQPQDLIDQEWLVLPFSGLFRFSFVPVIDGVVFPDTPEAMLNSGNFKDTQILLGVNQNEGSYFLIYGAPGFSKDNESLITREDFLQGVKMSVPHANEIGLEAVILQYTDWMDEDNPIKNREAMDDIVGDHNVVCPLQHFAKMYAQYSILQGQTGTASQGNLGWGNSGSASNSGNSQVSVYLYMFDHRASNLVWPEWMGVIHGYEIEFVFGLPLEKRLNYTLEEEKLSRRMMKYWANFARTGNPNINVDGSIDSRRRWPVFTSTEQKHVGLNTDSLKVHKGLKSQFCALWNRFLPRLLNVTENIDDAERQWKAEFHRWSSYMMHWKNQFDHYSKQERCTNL
eeAChE, sequence (O42275 24-633): as above
BuChE obtained from equine serum (EqBuChE), sequence (P81908 whole entry): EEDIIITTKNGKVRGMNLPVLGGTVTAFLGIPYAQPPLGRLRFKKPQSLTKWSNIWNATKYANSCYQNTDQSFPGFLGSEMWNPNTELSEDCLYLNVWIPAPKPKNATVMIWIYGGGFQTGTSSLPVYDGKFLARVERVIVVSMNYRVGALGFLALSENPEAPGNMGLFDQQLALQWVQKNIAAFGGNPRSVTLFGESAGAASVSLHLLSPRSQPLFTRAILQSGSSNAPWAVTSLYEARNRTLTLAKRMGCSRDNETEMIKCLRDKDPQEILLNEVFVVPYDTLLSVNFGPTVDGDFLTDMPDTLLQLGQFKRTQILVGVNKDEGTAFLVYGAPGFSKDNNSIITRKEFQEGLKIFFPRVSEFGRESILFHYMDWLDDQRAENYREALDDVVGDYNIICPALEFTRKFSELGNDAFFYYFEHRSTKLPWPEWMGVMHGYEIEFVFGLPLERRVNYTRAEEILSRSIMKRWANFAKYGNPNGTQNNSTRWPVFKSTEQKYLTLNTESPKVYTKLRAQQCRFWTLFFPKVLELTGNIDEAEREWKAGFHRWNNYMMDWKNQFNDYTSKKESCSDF

In the case of `O=C(N/N=C/c1ccc(Br)cc1)c1ccc(C(F)(F)F)cc1` [2k], the “fold less active against BuChE than 2d” value in test [1] is “approximately 3 fold”. Further, the results for the IC50 in test [1] (read-out: IC50 BuChE), in test [2] and in test [3] were 342 ± 11.3 µM, 62.1 ± 0.02 µM and above 100 µM, respectively. For the same molecule, in test [2], the “Selectivity BuChE/AChE” value was found to be 5.5.

As to `O=C(N/N=C/c1ccc(O)cc1)c1ccc(C(F)(F)F)cc1` [2e], the half-inhibitory concentration (IC50) was 229 ± 14.5 µM in test [1] (read-out: IC50 BuChE), 102 ± 3.8 µM in test [2] and above 100 µM in test [3]. For the same molecule, the “Selectivity BuChE/AChE” value in test [2] is reported as 2.3.

Take `O=C(N/N=C/c1ccc(Cl)cc1)c1ccc(C(F)(F)F)cc1` [2b]: the values for the IC50 in test [1] (read-out: IC50 BuChE), in test [2] and in test [3] were 254 ± 3.3 µM, 88.5 ± 1.4 µM and above 100 µM, respectively. The “Selectivity BuChE/AChE” value in test [2] is listed as 2.9.

For `O=C(NN=C1CCCCC1)c1ccc(C(F)(F)F)cc1` [3c], the IC50 in test [1] (read-out: IC50 BuChE) was 74.7 ± 2.7 µM; in test [2], 61.2 ± 1.3 µM; in test [3], above 100 µM. Also, the “Selectivity BuChE/AChE” value in test [2] was 1.2.

`Cc1ccc(C(=O)NN=Cc2ccc(C(F)(F)F)cc2)cc1` [2u, 4-Methyl-N’-[4-(trifluoromethyl)benzylidene]benzohydrazide]: the IC50 in test [1] (read-out: IC50 BuChE) stood at 245 ± 7 µM. In test [2], the “Selectivity BuChE/AChE” value is 3.3 and the IC50 came out at 75.3 ± 1.5 µM.

For `O=C(N/N=C/c1cccc(Cl)c1)c1ccc(C(F)(F)F)cc1` [2c], the results for the half-inhibitory concentration (IC50) in test [1] (read-out: IC50 BuChE), in test [2] and in test [3] were 261 ± 40.7 µM, 77.1 ± 0.03 µM and above 100 µM, respectively. Besides, the “Selectivity BuChE/AChE” value in test [2] is 3.4.

Take `O=C(N/N=C/c1cc(Cl)ccc1O)c1ccc(C(F)(F)F)cc1` [2h]: the IC50 in test [1] (read-out: IC50 BuChE) was 287 ± 12.6 µM; in test [2], 138 ± 3 µM; in test [3], above 100 µM. Besides, the “Selectivity BuChE/AChE” value in test [2] stood at 2.1.

As for `CC12CCC(CC1=NNC(=O)c1ccc(C(F)(F)F)cc1)C2(C)C` (centres unmarked) [3d], the IC50 in test [1] (read-out: IC50 BuChE) was 57 µM and 57.2 µM; in test [2], 59.3 ± 1.8 µM; in test [3], above 100 µM. In test [2], the “Selectivity BuChE/AChE” value was 1.0.

As for `Cc1ccc(/C=N/NC(=O)c2ccc(C(F)(F)F)cc2)cc1` [2i], the IC50 is 253 ± 9.6 µM in test [1] (read-out: IC50 BuChE), 91.4 ± 6.2 µM in test [2] and above 100 µM in test [3]. For the same molecule, in test [2], the “Selectivity BuChE/AChE” value was determined as 2.8.

For `COc1ccc(/C=N/NC(=O)c2ccc(C(F)(F)F)cc2)cc1` [2j], the IC50 was 279 ± 2.9 µM in test [1] (read-out: IC50 BuChE), 109 ± 2.2 µM in test [2] and above 100 µM in test [3]. The “Selectivity BuChE/AChE” value in test [2] amounted to 2.6.

For `O=C(NN=Cc1ccc(C(F)(F)F)cc1)c1ccc(C(F)(F)F)cc1` [2l, 4-(Trifluoromethyl)-N’-[4-(trifluoromethyl)benzylidene]benzohydrazide], the “fold less active against BuChE than 2d” value in test [1] is recorded as “approximately 3 fold”. The IC50 in test [1] (read-out: IC50 BuChE) was 175 ± 8.3 µM. Also, the Type of inhibition result in test [4] (Lineweaver–Burk plot, KM and Vm, ATCh 20–80 µM, inhibitor 10–40 µM) was “mixed type of inhibition”. For the same molecule, in test [4] (setting [5]), the Ki was 54.6 µM and the alpha is on record as 1.28. Further, in test [2], the “Selectivity BuChE/AChE” value was determined as 3.7 and it took 46.8 ± 2.1 µM to reach half-maximal inhibition (IC50). Further, the IC50 in test [3] was above 100 µM.

For `CC(C)=NNC(=O)c1ccc(C(F)(F)F)cc1` [3a], the IC50 in test [1] (read-out: IC50 BuChE) is 424 µM; in test [2], 69.7 ± 5.2 µM; in test [3], above 100 µM. The “Selectivity BuChE/AChE” value in test [2] is listed as 6.1.

Consider `O=C(NN=Cc1cccc(Br)c1)c1ccc(C(F)(F)F)cc1` [2n, N’-(3-Bromobenzylidene)-4-(trifluoromethyl)benzohydrazide], for which the figures for the IC50 in test [1] (read-out: IC50 BuChE) and in test [2] were 166.3 ± 0.8 µM and 96.9 ± 1.3 µM, respectively. Moreover, the “Selectivity BuChE/AChE” value in test [2] is 1.7.

With `O=C(NN=Cc1ccccc1[N+](=O)[O-])c1ccc(C(F)(F)F)cc1` [2s, N’-(2-Nitrobenzylidene)-4-(trifluoromethyl)benzohydrazide], in test [1] (read-out: IC50 BuChE), the IC50 was determined as 93.1 ± 4.9 µM. In addition, in test [2], the “Selectivity BuChE/AChE” value is recorded as 1.6 and the IC50 came to 59.7 ± 5.8 µM.

Regarding `O=C(N/N=C/c1cccc(O)c1)c1ccc(C(F)(F)F)cc1` [2f], the values for the IC50 in test [1] (read-out: IC50 BuChE), in test [2] and in test [3] were 250 ± 7.5 µM, 70.4 ± 2.8 µM and above 100 µM, respectively. In test [2], the “Selectivity BuChE/AChE” value is recorded as 3.5.

Regarding `O=C(NN=Cc1ccccc1Br)c1ccc(C(F)(F)F)cc1` [2o, N’-(2-Bromobenzylidene)-4-(trifluoromethyl)benzohydrazide], the “improved activity against BuChE” value in test [1] (fold, 2k vs. 2o) was determined as 6.3 ×. In addition, the IC50 in test [1] (read-out: IC50 BuChE) was 54.2 ± 0.1 µM. Besides, in test [2], the “Selectivity BuChE/AChE” value worked out at 0.9 and the IC50 stood at 62.6 ± 3.2 µM.

Regarding `O=C(NN=Cc1ccc(C(F)(F)F)cc1)c1ccccc1` [2t, N’-[4-(Trifluoromethyl)benzylidene]benzohydrazide], the values for the IC50 in test [1] (read-out: IC50 BuChE) and in test [2] were 189.8 ± 1.7 µM and 62.9 ± 0.8 µM, respectively. Further, in test [2], the “Selectivity BuChE/AChE” value amounted to 3.0.

Take `O=C(N/N=C/c1ccccc1O)c1ccc(C(F)(F)F)cc1` [2g]: the IC50 in test [1] (read-out: IC50 BuChE) is 881.1 ± 8 µM; in test [2] it was 47.4 ± 1.8 µM; in test [3] it was above 100 µM. For the same molecule, the “Selectivity BuChE/AChE” value in test [2] was determined as 18.6.

For the molecule `NNC(=O)c1ccc(C(F)(F)F)cc1` [compound 1, 4-(Trifluoromethyl)benzohydrazide], the IC50 in test [3] was above 100 µM.

Turning to `O=C(N/N=C/c1ccccc1Cl)c1ccc(C(F)(F)F)cc1` [2d], the IC50 in test [1] (IC50 BuChE) was 63.6 ± 0.9 µM; in test [2] it was 128 ± 10 µM; in test [3] it was above 100 µM. In test [2], the “Selectivity BuChE/AChE” value is given as 0.5.

On to `O=C(N/N=C/c1ccc([N+](=O)[O-])cc1)c1ccc(C(F)(F)F)cc1` [2m], for which the IC50 in test [1] (read-out: IC50 BuChE) is 190.6 ± 1.1 µM; in test [2], 60 ± 0.4 µM; in test [3] it was above 100 µM. Besides, in test [2], the “Selectivity BuChE/AChE” value is 3.2.

On to `O=C(NN=Cc1cccc(C(F)(F)F)c1)c1ccc(C(F)(F)F)cc1` [2p, 4-(Trifluoromethyl)-N’-[3-(trifluoromethyl)benzylidene]benzohydrazide], for which, in test [1] (read-out: IC50 BuChE), the IC50 was determined as 63.6 ± 2.8 µM. In test [2], the “Selectivity BuChE/AChE” value came to 1.3 and it took 49.9 ± 1.4 µM to reach half-maximal inhibition (IC50).

With `O=C(NN=Cc1cccc([N+](=O)[O-])c1)c1ccc(C(F)(F)F)cc1` [2r, N’-(3-Nitrobenzylidene)-4-(trifluoromethyl)benzohydrazide], the IC50 in test [1] (read-out: IC50 BuChE) came out at 133 ± 10.2 µM. In test [2], the “Selectivity BuChE/AChE” value came to 1.6 and the IC50 stood at 81.3 ± 2.6 µM.

Take `O=C(NN=C1CCCC1)c1ccc(C(F)(F)F)cc1` [3b]: the IC50 in test [1] (read-out: IC50 BuChE) was 200 ± 13.2 µM; in test [2] it was 69.2 ± 1 µM; in test [3] it was above 100 µM. Moreover, in test [2], the “Selectivity BuChE/AChE” value amounted to 2.9.

With `O=C(N/N=C/c1ccccc1)c1ccc(C(F)(F)F)cc1` [2a], the IC50 in test [1] (read-out: IC50 BuChE) is 651 ± 31.5 µM; in test [2], 75.9 ± 1.6 µM; in test [3], above 100 µM.

For `O=C(NN=Cc1ccccc1C(F)(F)F)c1ccc(C(F)(F)F)cc1` [2q, 4-(Trifluoromethyl)-N’-[2-(trifluoromethyl)benzylidene]benzohydrazide], in test [1] (read-out: IC50 BuChE), the IC50 came to 19.1 ± 0.5 µM. Also, in test [2], the “Selectivity BuChE/AChE” value stood at 0.4 and the IC50 amounted to 50 ± 1.6 µM.
